Structures are written as SMILES.

Series [1] deals with peripheral white blood cells. As to conditions: cited from earlier work.
A further series relates to blood cancer HL-60 cells. As to conditions: 5 uM, cultured for 48 hours; cited from earlier work.
The test system of series [2] is novel coronavirus (SARS-COV-2). Put plainly: Vero E6 cells plaque assay of SARS-COV-2 replication. The class given is cell-based.
For series [3] the following is noted: intraperitoneal injection of 1 mg/kg daily for 28 days, F344 rats; cited from earlier work.

`C/C=C/C=C/C/C=C\CCCCCCCCCc1cc(O)ccc1O` [HQ17(3), 10′(Z), 13′(E), 15′(E)-Heptadecatrienyl hydroquinone]: the “effect on peripheral white blood cells” value in series [1] (5 uM) is on record as “no effect on peripheral white blood cells”. Besides, in series [1] (50 uM), the “toxicity on peripheral white blood cells” value was “no toxicity on peripheral white blood cells was observed”. Also, in the series with blood cancer HL-60 cells, the “replication of HL-60 cells” value is listed as “the replication of blood cancer HL-60 cells was stopped”. The “virus inhibition rate (viral plaques)” value in series [2] (10 uM HQ17(3), stock in 0.1% DMSO, Vero E6 cells, one week) is “more than 60%”. Further, the EC50 – broadly, the concentration giving half of the maximal effect – in series [2] (Severe acute respiratory syndrome coronavirus 2, Vero C1008, 168 h, read-out: EC50, inhibition of SARS-COV-2 replication in cells by 50%) stood at 8.5 ± 0.96 µM. Besides, the toxicity in rats entry in series [3] is on record as “no toxicity was observed”.

The values above are taken from patent publication US20250057785A1, “APPLICATION OF 10'(Z), 13'(E), 15'(E)-HEPTADECATRIENYL HYDROQUINONE (HQ17(3)) IN TREATING CORONAVIRUS INFECTION” (National Atomic Research Institute, priority 2023, published 2025).
